Reference: US10722530B2, “Methods of diagnosing and treating cancer” (CASE WESTERN RESERVE UNIVERSITY, priority 2016, dated 2020)
Where two headings read alike, the source gives them in different places.

Columns and labels:
[1] = test system: cleaved PARP in HEC1A cells; experiment: Western blot of cleaved PARP; type: cell-based, human; details: 10 μM Q-VD-OPh, 50 nM 5-FdU, HEC1A shSCR and shUDG
Protocol: (§1) Western blots were performed as described in Yan et al. (Clin Cancer Res. (2007) 13:1532-39). Antibodies used were as follows: Anti-UDG (FL-313) (Santa Cruz Biotechnology), anti-Cleaved PARP (Asp214)(19F4) (Cell Signaling), and anti-α-Tubulin (Calbiochem).

[2] = test system: cleaved PARP in DLD1 cells; experiment: Western blot of cleaved PARP; type: cell-based, human; details: 10 μM Q-VD-OPh, 50 nM 5-FdU, DLD1 shSCR and shUDG
Protocol: as §1

[3] = test system: γH2AX foci in HEC1A cells; experiment: γH2AX foci immunofluorescence staining; type: cell-based, human; details: 10 μM Q-VD-OPh with 50 nM 5-FdU, HEC1A shSCR or shUDG
Protocol: (§2) Cells cultured on glass coverslips were treated with 5-FdU in the presence or absence of 10 μM caspase inhibitor Q-VD-OPH (BioVision Inc). Cells were fixed in 3.7% formaldehyde for 10 minutes, blocked with PBS containing 10% FBS and 0.1% Triton X-100 for 20 minutes, washed with PBS three times, and incubated with primary anti-γH2AX antibody (Millipore, dilution: 1:150) in PBS containing 0.1% Triton X-100 at 4° C. overnight. The cells were then washed with PBS three times, incubated with secondary antibodies (Alexa Fluor 594, Life Technologies; dilution: 1:400) in PBS containing 0.1% Triton X-100 for 1 h, and washed with PBS three times. The slides were mounted with antifade solution with DAPI (Cell Signaling) and visualized on a Leica laser microscope.

γH2AX foci in DLD1 cells = experiment: γH2AX foci immunofluorescence staining; type: cell-based, human; details: 10 μM Q-VD-OPh with 50 nM 5-FdU, DLD1 shSCR or shUDG
Protocol: as §2

DLD1 colon cancer cells = details: for effect of UDG depletion on drug sensitivity: DLD1 shUDG vs shSCR
Protocol: UDG knockdown was performed via shRNA transduction with validated clone from Sigma-Aldrich. […] A non-targeted scramble control shRNA clone (Sigma-Aldrich) was also used. Transfection of shRNA clones was performed according to manufacturer's specifications from Lipofectamine 2000 (Invitrogen). Lentiviral particles were produced via HEK293 cells, and targeted cells were infected and selected with puromycin. The stable UDG knockdown levels were verified for q-PCR and western blot analysis.
Colonies were stained with methylene blue, and only colonies containing ≥50 cells were counted. The percentage of survival was determined relative to untreated control averaged over 3 independent experiments.

[4] = test system: HEC1A endometrial cancer cells; experiment: Colony survival assay, shSCR and shUDG cells; type: cell-based, human; details: HEC1A shUDG vs shSCR
Protocol: UDG knockdown was performed via shRNA transduction with validated clone from Sigma-Aldrich. The ID of UDG shRNA clone is NM_003362.2-656s21c1. A non-targeted scramble control shRNA clone (Sigma-Aldrich) was also used. Transfection of shRNA clones was performed according to manufacturer's specifications from Lipofectamine 2000 (Invitrogen). Lentiviral particles were produced via HEK293 cells, and targeted cells were infected and selected with puromycin. The stable UDG knockdown levels were verified for q-PCR and western blot analysis.
DLD1 (200 cells/well) or HEC1A (300 cells/well) cells were plated in 6-well culture dishes and allowed to adhere for 16 h. Cells were treated with drug for 24 h, gently washed twice with 1×PBS, and incubated with fresh media for at least 10 days to allow individual colonies to form. Colonies were stained with methylene blue, and only colonies containing ≥50 cells were counted. The percentage of survival was determined relative to untreated control averaged over 3 independent experiments.

Text for HCT116 p53 KO cells: (§3) p53 or UDG knockdown was achieved via shRNA transduction. Lentiviral vectors LV-THM-shp53 (which also expresses a GFP reporter) or LV-Bleo-shp53 to perform p53 KD in WT HCT116 cells were obtained from Case Western Reserve University, Cleveland, Ohio Lentiviral vector targeting GFP (sh-GFP) was used as control. UDG shRNA vectors (shUDG: NM_003362.2-656s21c1, shUDG-2: NM_003362.2-758s21c1, and shUDG-3: NM_003362.2-893s21c1) were purchased from Sigma, and a scramble targeting shRNA vector (Sigma) was used as paired control. The lentiviral production and infection were performed as previously described. Cells stably infected with LV-THM-p53 were isolated by cell sorting on the basis of their GFP expression.
(§4) Cancer cells (200-300 cells/well) were seeded in 6-well culture dishes and allowed to adhere overnight. For 5-FdU, cells were treated for 24 h, then gently washed with PBS, and incubated with fresh media for at least 10 days to allow individual colonies to form. […] After 10-18 days, the plates were stained with methylene blue. Colonies containing ≥50 cells were counted. The percentage of survival was determined relative to untreated control averaged over 3 independent experiments.
Text for HCT116 p53 WT cells: as §3, §4

O=c1[nH]cc(F)c(=O)[nH]1 [5-FU, 5-Fluorouracil]
effect of UDG depletion on cytotoxicity (HCT116 p53 KO cells; HCT116 p53 KO, shUDG vs shSCR): only moderately sensitized
effect of UDG depletion on cytotoxicity (HCT116 p53 WT cells; HCT116 p53 WT, shUDG vs shSCR): no significant survival differences

CC(C)[C@H](NC(=O)c1ccc2ccccc2n1)C(=O)N[C@@H](CC(=O)O)C(=O)COc1c(F)cccc1F [Q-VD-OPh]
cleaved PARP induced by 5-FdU in presence of Q-VD-OPh [1]: almost completely blocked
cleaved PARP induced by 5-FdU in presence of Q-VD-OPh [2]: almost completely blocked
γH2AX foci, Q-VD-OPh treated vs non-treated [3]: essentially the same
γH2AX foci, Q-VD-OPh treated vs non-treated (γH2AX foci in DLD1 cells): essentially the same

N.N.[Cl][Pt][Cl] [cisplatin, cis-diamminedichloroplatinum II]
effect of UDG depletion on drug sensitivity (DLD1 colon cancer cells): no further sensitivity
effect of UDG depletion on drug sensitivity [4]: no further sensitivity

COc1cccc2c1C(=O)c1c(O)c3c(c(O)c1C2=O)C[C@@](O)(C(=O)CO)C[C@@H]3O[C@H]1C[C@H](N)[C@H](O)[C@H](C)O1 [doxorubicin]
effect of UDG depletion on drug sensitivity (DLD1 colon cancer cells): no further sensitivity
effect of UDG depletion on drug sensitivity [4]: no further sensitivity

Nc1nc2[nH]cc(CCc3ccc(C(=O)N[C@@H](CCC(=O)O)C(=O)O)cc3)c2c(=O)[nH]1 [pemetrexed]
effect of UDG depletion on drug sensitivity (DLD1 colon cancer cells): sensitization was also observed
effect of UDG depletion on cytotoxicity (HCT116 p53 KO cells): sensitized
effect of UDG depletion on drug sensitivity [4]: sensitization was also observed
effect of UDG depletion on cytotoxicity (HCT116 p53 WT cells): no significant survival differences

Cc1cn([C@H]2C[C@H](O)[C@@H](CO)O2)c(=O)[nH]c1=O [thymidine]
rescue of 5-FdU cell death by thymidine given 24 h after (DLD1 colon cancer cells; 20 μM thymidine 24 h after 5-FdU, UDG depleted cells): barely inhibited cell death
cell killing by 5-FdU with simultaneous thymidine (DLD1 colon cancer cells; 20 μM thymidine simultaneously with 0 to 200 nM 5-FdU, shSCR or shUDG): almost no killing
